{"source": "paper PMC9232612", "about": "“A phase 1b randomised controlled trial of a glucagon-like peptide-1 and glucagon receptor dual agonist IBI362 (LY3305677) in Chinese patients with type 2 diabetes” (Nature Communications, 2022)", "key": {"[1]": {"test_system": "Chinese patients with T2D", "assay": "Mixed-meal tolerance test (MTT) and fasting: total GLP-1", "format": "in vivo, human", "settings": "week 12; patients receiving IBI362", "method": "HbA1c (2200101, Bio-Rad, USA), blood glucose (05168791190, Roche Diagnostics, Germany), insulin (12017547122, Roche Diagnostics, Germany), C peptide (03184897190, Roche Diagnostics, Germany), total GLP-1 (GLP-1 [7–36] amide and its metabolite, GLP-1 [9–36] amide, 10-1278-01, Mercodia AB, Sweden) and OXM (AL-139, AnshLabs, USA) tests were performed according to the manufactures’ instruction manuals in a central laboratory (KingMed Diagnostics, Guangzhou, China). HbA1c was measured using a Bio-rad D-100 Haemoglobin Testing System (Bio-rad). Blood glucose was measured using a Roche Cobas c702 analyser (Roche Diagnostics). Insulin and C peptide were measured using a Roche […] analyser (Roche Diagnostics). GLP-1 and OXM were measured using a Tecan Infinite M Plex microplate reader (TECAN).\nStandard non-compartmental pharmacokinetics methods were used to analyze IBI362 plasma concentration data using Pkanalix 2020R1 (Lixoft, Antony, France). Secondary efficacy outcomes included change from baseline to week 12 in HbA1c, fasting plasma glucose (FPG), fasting insulin levels, change from baseline to week 12 in post-mixed-meal tolerance test (post-MTT) glucose, insulin, C peptide, GLP-1 and OXM levels, as well as seven-point self-measured blood glucose (SMBG) profile. […]\n3. […]\nbag is added and mixed well. The time is counted from the first bite of eating. […]"}, "[2]": {"assay": "Non-compartmental pharmacokinetics of IBI362 in plasma", "format": "in vivo", "settings": "human, sc; for AUC(0-t): n=8, read-out: AUC0-168h, geometric mean (CV%); for Cmax: n=8, read-out: Cmax, geometric mean (CV%)", "text": "Standard non-compartmental pharmacokinetics methods were used to analyze IBI362 plasma concentration data using Pkanalix 2020R1 (Lixoft, Antony, France). Secondary efficacy outcomes included change from baseline to week 12 in HbA1c, fasting plasma glucose (FPG), fasting insulin levels, change from baseline to week 12 in post-mixed-meal tolerance test (post-MTT) glucose, insulin, C peptide, GLP-1 and OXM levels, as well as seven-point self-measured blood glucose (SMBG) profile.\nSafety analyses were done in the safety population (defined as all patients who received at least one dose of the study treatment). Pharmacokinetic analyses were done in the pharmacokinetic population (defined as all patients who received at least one dose of IBI362 and had at least one valid plasma concentration assessment). Efficacy analyses were done in the efficacy population (defined as all patients who received at least one dose of the study treatment and had baseline and at least one post-baseline HbA1c assessment). Immunogenicity analyses were done in the immunogenicity population (defined as all patients who received at least one dose of the study treatment and had at least one post-baseline ADA result). […]\nTable 3. PK/PD Sampling Schedule\nsampling time hour hour hour hour 1 hour hour hour for\ncollection - - min min ± 30 mi 1h 2h 3h 4h 5h - ± 2h - min min - ± 2h - min min - - 2h 12h\nDrug √ √ √ √ √ √ √ √ √ √ √ √ √ √ √\nPK Sampling ● ● ● ● ● ● ● ● ● ● ● ● ● ● ● ● ● ● ● ● ● ● ●\n1. PK sampling time points: Week 1 (intensive PK) PK sampling points: within 1 h before administration, 4 h ± 10 min, 8 h ± 20 min, 12 h ± 30 min, 24 h ± 1 h (Day 2), 48 h ± 2 h (Day 3), 72 h ± 3 h (Day 4), 96 h\n± 4 h (Day 5), 120 h ± 5 h (Day 6) and within 1 h before administration on Day 8. Week 4: D22 for 48h ± 2h. Sparse sampling in Week 5: within 1 h before administration on Day 29, 4 h ± 10 min, 8 h ± 20 min after\nadministration and within 1 h before administration on Day 36. Week 8: D50 48h ± 2h. Sparse sampling in Week 9: within 1 h before administration on Day 57, 4 h ± 10 min, 8 h ± 20 min after administration and within\n1 h before administration on Day 64. Sparse sampling at Week 12: Within 1h before administration, 48h ± 2h after administration (D80) and 168h ± 12h after administration (D85) on D78. If a patient fails to complete\nthe study and withdraws from the study prematurely, PK samples will be collected at early termination visit. Three (3) mL samples will be collected at each blood collection site and detailed procedures will be provided\nin the central laboratory manual.\n2. PD sampling (insulin/C-peptide/plasma glucose/glucagon/OXM/GLP-1) points: Week 1: within 48 hours ± 2 hours after dosing (Day 3), within 1 hour before dosing on Day 8; Week 5: within 1 hour before dosing\non Day 29; Week 9: within 1 hour before dosing on Day 57; Week 12: within 1 hour before dosing on D78 and 168 hours ± 12 hours after dosing (D85). PD samples will be collected at the early termination visit, if a\npatient withdraw early due to failure to complete the study. All PD sampling will be performed in the fasted state. A total of 9 mL will be collected from each blood collection site, and the detailed operation process will\nbe described in the central laboratory manual."}, "[3]": {"settings": "single dose range of 0.03-5 mg; earlier study, ref not given; cited from earlier work", "text": "page 21: safety follow-up visit. The safety data of this patient was collected and included in the analysis. We made this clear in the Results (Lines 210-213). 6. For the tables that present treatment emergent adverse events (Table 2 and Supplementary Table 2), do the numbers in the table correspond to the number of events, or the number of patients who experienced at least one event? Response: Safety data in this study were presented as number of patients (percentage). We made this clear in the footnotes (Fig. 2 and S3) of relevant tables and apologized for the neglect. 7. For Supplementary T ..."}, "[4]": {"settings": "after the first dose (1.0 mg s.c.), 3.0 mg cohort"}, "[5]": {"settings": "after the first dose (1.5 mg s.c.), 4.5 mg cohort"}, "[6]": {"settings": "after the first dose (2.0 mg s.c.), 6.0 mg cohort"}}, "note": "Read-outs that look alike come from different tables or passages of the source.", "data": [{"smiles": "CC(C)C[C@H](NC(=O)[C@H](CC(C)C)NC(=O)[C@H](Cc1c[nH]c2ccccc12)NC(=O)[C@H](CCC(=O)O)NC(=O)[C@@H](NC(=O)[C@H](Cc1ccccc1)NC(=O)[C@H](CCC(=O)O)NC(=O)[C@H](CCCCNC(=O)COCCOCCNC(=O)COCCOCCNC(=O)CC[C@H](NC(=O)CCCCCCCCCCCCCCCCCCC(=O)O)C(=O)O)NC(=O)[C@H](C)NC(=O)[C@H](CCCCN)NC(=O)[C@H](CCCCN)NC(=O)[C@H](CCC(=O)O)NC(=O)[C@H](CC(=O)O)NC(=O)[C@H](CC(C)C)NC(=O)[C@H](Cc1ccc(O)cc1)NC(=O)[C@H](CCCCN)NC(=O)[C@H](CO)NC(=O)[C@H](Cc1ccc(O)cc1)NC(=O)[C@H](CC(=O)O)NC(=O)[C@H](CO)NC(=O)[C@@H](NC(=O)[C@H](Cc1ccccc1)NC(=O)[C@@H](NC(=O)CNC(=O)[C@H](CCC(N)=O)NC(=O)C(C)(C)NC(=O)[C@@H](N)Cc1c[nH]cn1)[C@@H](C)O)[C@@H](C)O)C(C)C)C(=O)N[C@@H](CCC(=O)O)C(=O)NCC(=O)NCC(=O)N1CCC[C@H]1C(=O)N[C@@H](CO)C(=O)N[C@@H](CO)C(=O)NCC(N)=O", "note": "[IBI362]", "values": [{"measurement": "post-MTT GLP-1 excursion", "setting": "[1]", "result": "markedly suppressed"}, {"measurement": "Tmax", "setting": "[2]; after first s.c. dose, all IBI362 cohorts, n=24, read-out: median Tmax", "result": "~72", "unit": "h"}, {"measurement": "AUC(0-t)", "setting": "[2]; [4]", "result": 12300, "unit": "ng·h/mL"}, {"measurement": "Cmax", "setting": "[2]; [4]", "result": 89.5, "unit": "ng/mL"}, {"measurement": "Tmax", "setting": "[2]; after the first dose (1.0 mg s.c.), 3.0 mg cohort, n=8, read-out: Tmax, median (range)", "result": 48.2, "unit": "h"}, {"measurement": "AUC(0-t)", "setting": "[2]; [5]", "result": 16500, "unit": "ng·h/mL"}, {"measurement": "Cmax", "setting": "[2]; [5]", "result": 109, "unit": "ng/mL"}, {"measurement": "Tmax", "setting": "[2]; after the first dose (1.5 mg s.c.), 4.5 mg cohort, n=8, read-out: Tmax, median (range)", "result": 72.2, "unit": "h"}, {"measurement": "AUC(0-t)", "setting": "[2]; [6]", "result": 22100, "unit": "ng·h/mL"}, {"measurement": "Cmax", "setting": "[2]; [6]", "result": 170, "unit": "ng/mL"}, {"measurement": "Tmax", "setting": "[2]; after the first dose (2.0 mg s.c.), 6.0 mg cohort, n=8, read-out: Tmax, median (range)", "result": 84, "unit": "h"}, {"measurement": "pharmacokinetic profile", "setting": "[3]", "result": "linear"}]}]}
